{"source": "patent US10889596B2", "about": "“Beta-amino pateamine a derivatives and methods for treating chronic lymphocytic leukemia” (The Texas A&M University System, priority 2016, dated 2021)", "key": {"primary CLL cells": {"tested_on": "primary CLL cells", "assay": "Toxicity/apoptosis in primary CLL cells, annexin V/PI double staining and flow cytometry", "type": "cell-based, human", "conditions": "for influence of human plasma content on potency: RPMI with 10% fetal bovine serum, 10% or 50% patient plasma", "procedure": "(§1) The mechanism of action of DMDAPatA was studied in multiple primary CLL samples (FIG. 3A). […] CLL cells were incubated with DMDAPatA for 4 and 24 h then pulse labeled with [^3H]leucine for 1 h. The amount of [^3H]leucine incorporation into the acid insoluble materials (DNA, RNA and proteins) was measured by scintillation counter. […] This is consistent in 3 samples as quantitated in FIG. 3C. The Bcl-2 level was not affected by DMDAPatA, which is consistent with its longer half-life (FIG. 3C). […] MOMP facilitates the release of cytochrome c from mitochondria to form the apoptosome, which activated caspase-3 and induced apoptosis. As PARP is a substrate of caspase-3, an increase of cleaved PARP in FIG. 3C indicated activation of caspase 3. Apoptosis was measured by annexin V and propodium iodide (PI) double staining followed by flow cytometry.\n(§2) To screen for PatA analogs with greater potency and less plasma protein binding, the toxicity of the analogs to primary CLL cells was measured after 24 of incubation by annexin/PI double staining followed by flow cytometry. This was compared between CLL cells cultured in media supplemented with either 10% FBS or patient plasma to evaluate the plasma influence. Plasma protein binding was assessed using the equilibrium dialysis method (FIG. 7B)."}, "Bcl-2": {"tested_on": "Bcl-2", "assay": "Immunoblot of Bcl-2 level in CLL cells", "type": "cell-based, human", "conditions": "CLL samples", "procedure": "as §1"}, "[1]": {"tested_on": "protein synthesis in CLL cells", "assay": "[3H]leucine incorporation analysis of protein synthesis in CLL cells", "type": "cell-based, human", "conditions": "CLL cells incubated 4 and 24 h, pulse labeled 1 h", "procedure": "as §1\n(§3) To confirm that the analogs retain the inhibition on protein synthesis, leucine incorporation analysis was performed on the analogs (FIG. 9A) and compared to DMDAPatA and PatA."}, "[2]": {"tested_on": "models of human leukemia and melanoma", "conditions": "mice; cited from earlier work"}, "[3]": {"assay": "Plasma protein binding, equilibrium dialysis", "type": "in vitro ADME, human", "procedure": "as §2\nIn this example, the plasma protein binding assay used to provide the plasma protein binding data is described.\nThe assay includes the following steps.\n1. Frozen plasma was thawed and centrifuged at 1120 g for 10 min to remove any particulates. The plasma was decanted, the pH was measured and, if required, was adjusted to pH7.4 with lactic acid.\n2. All compounds were prepared at 10 mM concentration in DMSO. The solutions were carefully vortexed to ensure the compounds dissolved. The 10 mM DMSO solutions were diluted to 500 μM MeOH solutions (5+95 μl).\n3. In a 2 mL 96-well plate (DWP), 1000 μL of plasma was pipetted into each well in Columns 1-4.\n4. 10 μL of the 500 μM compound solution was pipetted to 1000 μL of corresponding plasma. (The final DMSO=0.05%). The solution was capped and carefully vortexed for 5 min.\n5. 200 μL of PBS buffer was added to each receiver well of the dialysis plate (buffer was added to the Receiver first).\n6. The bottom of dialysis plate was capped and turned over to the orange donor side (top) of dialysis plate.\n7. The orange donor side of the dialysis plate was uncapped and 200 μL of the 10 μM drug/plasma samples were transferred from the 2 ml 96-DWP to the corresponding donor wells in the dialysis plate. The orange donor side of the dialysis plate was then capped.\n8. The dialysis plate was placed onto the plate rotator in a 37° C. oven and incubated at 37° C. with a rotation speed 20 rpm for 22 hr.\n9. To a 1 mL 96-DWP, 50 μL/well of the 5 μM drug/plasma samples was pipetted from the 2 mL 96-DWP in triplicate. 50 μL/well of PBS and then 300 μL of ACN/IS was added. The plate was kept at 4° C. This plate serves as the recovery plate.\n10. Two 1 mL 96-DWP were prepared and marked as Donor Plate and Receiver Plate.\n11. The dialysis plate was removed from the 37° C. oven.\n12. The caps were removed from the donor side of the dialysis plate.\n13. 50 μL of samples were pipetted from the donor side of the dialysis plate and added into the 96-DWP Donor Plate. 50 μL of PBS buffer was added into the 96-DWP Donor Plate.\n14. The donor side of the dialysis plate was capped and turned over. Caps were removed from the Receiver side wells. 50 uL of samples were pipetted from the Receiver side of the dialysis plate and added to the 96-DWP Receiver Plate. […]\n23. The samples in the Receiver Plate, Donor Plate, and Recovery Plate were analyzed by LC/MS/MS […]"}, "Mcl-1": {"tested_on": "Mcl-1", "assay": "Immunoblot of Mcl-1 level in CLL cells", "type": "cell-based, human", "conditions": "CLL samples", "procedure": "as §1, §3"}, "[4]": {"assay": "Stability of DMDAPatA in RPMI, FBS and human plasma", "type": "in vitro ADME", "conditions": "read-out: Half-life time (converted)", "procedure": "These experiments were performed in CLL cells cultured in media supplemented with 10% patient plasma. While mimicking the in vivo environment, we also found this condition beneficial in maintaining cell survival. One potential reason for the reduced potency in the presence of human plasma is stability. To test this theory, the stability of DMDAPatA was studied in FBS and human plasma at two different concentrations."}, "[5]": {"tested_on": "P388 murine leukemia cells", "conditions": "read-out: IC50, cytotoxic activity; cited from earlier work"}, "[6]": {"tested_on": "B cells from normal donors", "assay": "Cellular toxicity to B cells from normal donors", "type": "cell-based, human", "text": "(§4) To predict the therapeutic window of the PatA analogs, their cellular toxicity was compared to CLL cells and to B and T cells from normal donors (FIGS. 8A and 8B). […] PatA was originally identified as a biological probe that inhibits T cell activation, consistent with its toxicity to T cells."}, "[7]": {"tested_on": "T cells from normal donors", "assay": "Cellular toxicity to T cells from normal donors", "type": "cell-based, human", "text": "as §4"}, "[8]": {"conditions": "primary CLL cells, media with 10% FBS, 24 incubation, read-out: IC50 (μM) 10% FBS"}, "[9]": {"conditions": "primary CLL cells, media with 10% patient plasma, 24 incubation, read-out: IC50 (μM) 10% Plasma"}, "[10]": {"conditions": "RPMI medium without serum, Pure RPMI"}, "[11]": {"conditions": "Homo sapiens, CLL cell, primary CLL cells, media with 10% FBS, 24 incubation, read-out: IC50 (μM) 10% FBS"}, "[12]": {"conditions": "Homo sapiens, CLL cell, primary CLL cells, media with 10% patient plasma, 24 incubation, read-out: IC50 (μM) 10% Plasma"}}, "note": "Several values for one entry are separate records, joined by “and”; a condition that tells them apart may be missing. Identical values can stand only once. Like-named read-outs stand apart in the source and are kept apart here.", "data": [{"compound": "CC(=O)NC1CCc2csc(n2)CC(C=C(C)C=CC(C)=CCN(C)C)OC(=O)C=CC=C(C)CC(C)OC(=O)C1", "note": "[MZ732, N-((12Z,3S,6Z,8E,11S,15R)-3-((1E,3E,5E)-7-(dimethylamino)-2,5-dimethylhepta-1,3,5-trien-1-yl)-9,11-dimethyl-5,13-dioxo-4,12-dioxa-1(2,4)-thiazolacycloheptadecaphane-6,8-dien-15-yl)acetamide]", "values": [{"measurement": "IC50", "setting": "primary CLL cells; [8]", "value": 4.58, "unit": "µM"}, {"measurement": "IC50", "setting": "primary CLL cells; [9]", "value": 6.8, "unit": "µM"}]}, {"compound": "CC(/C=C/C(C)=C/[C@@H]1Cc2nc(cs2)CCCCC(=O)O[C@@H](C)C/C(C)=C/C=C\\C(=O)O1)=C\\CN(C)C", "note": "[DMDAPatA, Des-methyl, des-amino Pateamine A]", "values": [{"measurement": "Bcl-2 level", "setting": "Bcl-2", "value": "not affected"}, {"measurement": "inhibition of protein synthesis ([3H]leucine incorporation)", "setting": "[1]", "value": "inhibit protein synthesis"}, {"measurement": "activity in xenograft models", "setting": "[2]", "value": "significant tumor reduction"}, {"measurement": "recovery in plasma", "setting": "[3]", "value": "low recovery"}, {"measurement": "plasma protein bound", "setting": "[3]; human plasma", "value": "99.7% and > 99%"}, {"measurement": "Mcl-1 level", "setting": "Mcl-1", "value": "reduced the short-lived anti-apoptotic protein Mcl-1"}, {"measurement": "half-life at 1 µM", "setting": "[4]; Fetal Bovine Serum", "value": 16, "unit": "h"}, {"measurement": "half-life at 10 µM", "setting": "[4]; Fetal Bovine Serum", "value": 11.5, "unit": "h"}, {"measurement": "half-life at 1 µM", "setting": "[4]; Human Plasma", "value": 18, "unit": "h"}, {"measurement": "half-life at 10 µM", "setting": "[4]; Human Plasma", "value": 14, "unit": "h"}, {"measurement": "half-life at 1 µM", "setting": "[4]; [10]", "value": 3, "unit": "h"}, {"measurement": "half-life at 10 µM", "setting": "[4]; [10]", "value": 3.2, "unit": "h"}, {"measurement": "potency relative to PatA (times less potent)", "setting": "primary CLL cells; CLL cells, media with 10% patient plasma", "value": "about 30 times"}, {"measurement": "IC50 in samples with favorable versus poor prognostic characteristics", "setting": "primary CLL cells; CLL patient samples by prognostic group", "value": "no significant differences"}, {"measurement": "IC50", "setting": "primary CLL cells; Homo sapiens, CLL cell, measured in 13 CLL samples, read-out: average IC50", "value": 2.8, "unit": "µM"}, {"measurement": "IC50", "setting": "primary CLL cells; [11]", "value": 0.65, "unit": "µM"}, {"measurement": "IC50", "setting": "primary CLL cells; [12]", "value": 6.42, "unit": "µM"}, {"measurement": "influence of human plasma content on potency", "setting": "primary CLL cells", "value": "greatly reduced the potency"}]}, {"compound": "1,1,1-Trichloro-2-methylpropan-2-yl ((12Z,3S,6Z,8E,11S,15R)-3-((1E,3E,5E)-7-(dimethyl amino)-2-methylhepta-1,3,5-trien-1-yl)-9,11-dimethyl-5,13-dioxo-4,12-dioxa-1(2,4)-thiazolacycloheptadecaphane-6,8-dien-15-yl)carbamate [OR-IV-211]", "values": [{"measurement": "IC50", "setting": "primary CLL cells; [8]", "value": 3.5, "unit": "µM"}, {"measurement": "IC50", "setting": "primary CLL cells; [9]", "value": 6.65, "unit": "µM"}]}, {"compound": "CC(/C=C/C(C)=C/[C@@H]1Cc2nc(cs2)[C@@H](C)C[C@@H](N)CC(=O)O[C@@H](C)C/C(C)=C/C=C\\C(=O)O1)=C\\CN(C)C", "note": "[PatA, Pateamine A]", "values": [{"measurement": "IC50", "setting": "[5]", "value": 0.27, "unit": "nM"}, {"measurement": "toxicity to normal B cells compared with CLL cells", "setting": "[6]", "value": "similarly toxic to CLL cells as well as normal B and T cells"}, {"measurement": "toxicity to normal T cells compared with CLL cells", "setting": "[7]", "value": "similarly toxic to CLL cells as well as normal B and T cells"}, {"measurement": "IC50", "setting": "primary CLL cells; [11]", "value": 0.2, "unit": "µM"}, {"measurement": "IC50", "setting": "primary CLL cells; [12]", "value": 0.2, "unit": "µM"}, {"measurement": "influence of human plasma content on potency", "setting": "primary CLL cells", "value": "not as influential"}]}, {"compound": "CC(/C=C/C(C)=C/[C@@H]1Cc2nc(cs2)CC[C@@H](N)CC(=O)O[C@@H](C)C/C(C)=C/C=C\\C(=O)O1)=C\\CN(C)C", "note": "[OR-IV-234, (12Z,3S,6Z,8E,11S,15R)-15-amino-3-((1E,3E,5E)-7-(dimethylamino)-2,5-dimethylhepta-1,3,5-trien-1-yl)-9,11-dimethyl-4,12-dioxa-1(2,4)-thiazolacycloheptadecaphane-6,8-diene-5,13-dione]", "values": [{"measurement": "plasma protein binding (PPB) compared with PatA and DMDAPatA", "setting": "[3]", "value": "much lower plasma protein binding"}, {"measurement": "recovery in plasma", "setting": "[3]", "value": "modest recovery"}, {"measurement": "IC50", "setting": "primary CLL cells; [8]", "value": 0.33, "unit": "µM"}, {"measurement": "IC50", "setting": "primary CLL cells; [9]", "value": 0.35, "unit": "µM"}]}]}
